In patent publication US20230265116A1, “DEGRADATION OF (EGFR) BY CONJUGATION OF EGFR INHIBITORS WITH E3 LIGASE LIGAND AND METHODS OF USE” (BEIGENE, LTD., priority 2020, published 2023):
Read-outs that look alike come from different tables or passages of the source.

Tests used:
[1] = test system: EGFR Del19/T790M/C797S (H1975-clone #28); assay: EGFR degradation HTRF assay, H1975-clone #28 DTC cells; format: cell-based
Method in brief: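 Read-out is an HTRF EGFR signal (337 nm excitation, 665/620 nm) from lysates of mutant-EGFR H1975 clones in which only the exogenous EGFR survives knockout. Treatment ran 16h at 37° C. from 10 uM final downward in 5-fold steps. DC50 comes from a logistic fit and Dmax is the maximal degradation.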

[2] = molecular target: T1, EGFR L858R/T790M/C797S (BaF3-LTC cells) (Homo sapiens, UniProt P00533, C797S/L858R/T790M); assay: EGFR degradation HTRF assay, BaF3-LTC cells; format: cell-based
T1 construct: expressed in transfected cells; host or cells: BaF3
T1 sequence (P00533 25-1210 T790M/C797S/L858R): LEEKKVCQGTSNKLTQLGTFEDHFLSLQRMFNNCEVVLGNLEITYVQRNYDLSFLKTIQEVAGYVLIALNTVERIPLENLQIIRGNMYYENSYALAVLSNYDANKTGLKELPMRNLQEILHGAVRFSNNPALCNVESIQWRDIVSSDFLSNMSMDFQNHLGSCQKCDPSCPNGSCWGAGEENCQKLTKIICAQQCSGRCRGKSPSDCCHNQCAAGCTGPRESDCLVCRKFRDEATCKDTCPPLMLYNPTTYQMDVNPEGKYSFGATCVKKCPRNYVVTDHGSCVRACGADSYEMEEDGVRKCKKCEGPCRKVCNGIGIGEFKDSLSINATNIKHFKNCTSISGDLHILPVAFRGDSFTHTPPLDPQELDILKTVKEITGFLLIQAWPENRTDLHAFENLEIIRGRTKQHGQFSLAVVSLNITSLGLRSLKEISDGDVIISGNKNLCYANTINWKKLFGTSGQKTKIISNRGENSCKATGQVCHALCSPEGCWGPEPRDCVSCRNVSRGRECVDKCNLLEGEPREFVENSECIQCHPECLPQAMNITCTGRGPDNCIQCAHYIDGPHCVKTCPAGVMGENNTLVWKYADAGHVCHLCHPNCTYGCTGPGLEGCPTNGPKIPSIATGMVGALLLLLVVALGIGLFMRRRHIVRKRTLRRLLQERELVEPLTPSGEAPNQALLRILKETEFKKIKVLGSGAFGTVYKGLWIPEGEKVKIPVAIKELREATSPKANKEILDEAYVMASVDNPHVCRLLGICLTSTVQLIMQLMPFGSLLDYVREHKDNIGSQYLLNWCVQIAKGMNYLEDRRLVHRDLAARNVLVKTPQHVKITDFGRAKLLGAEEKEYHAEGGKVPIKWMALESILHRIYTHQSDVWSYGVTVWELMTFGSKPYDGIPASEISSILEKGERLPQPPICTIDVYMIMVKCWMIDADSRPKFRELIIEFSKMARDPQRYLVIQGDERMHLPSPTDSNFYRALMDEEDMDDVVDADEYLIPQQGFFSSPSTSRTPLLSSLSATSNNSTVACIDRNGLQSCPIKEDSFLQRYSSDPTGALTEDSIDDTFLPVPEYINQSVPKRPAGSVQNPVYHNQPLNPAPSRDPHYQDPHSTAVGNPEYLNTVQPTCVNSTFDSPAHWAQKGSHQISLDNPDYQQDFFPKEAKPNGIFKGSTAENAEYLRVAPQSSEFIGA
Method in brief: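 EGFR remaining after a 16 h, 37 °C exposure (8 doses, 5-fold steps from 10 uM final, 0.2% DMSO) was quantified by HTRF antibodies in cell lysate. Percent inhibition relative to DMSO control was fitted by four-parameter logistic to give DC50; Dmax denotes maximal degradation.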

[3] = H1975 # 28 DTC cells; EGFR degradation, IC50 (DC50) from curve fit; read-out: DC50(nM) H1975 # 28 DTC
[4] = H1975 # 28 DTC cells; maximum percentage of inhibition (degradation)
[5] = BaF3-LTC cells; EGFR degradation, IC50 (DC50) from curve fit; read-out: DC50(nM) BaF3-LTC
[6] = BaF3-LTC cells; maximum percentage of inhibition (degradation); read-out: Dmax (%) BaF3-LTC

DC50 [1, 3] [nM]	DC50 [2, 5] [nM]	Dmax [2, 6] [%]	Structure (SMILES)	Dmax (%) H1975 # 28 DTC [1, 4]	DC50 ([1]; read-out: DC50(nM) H1975 # 28 DTC; H1975 # 28 DTC cells; EGFR degradation, IC50 (DC50) from curve fit) [nM]	DC50 ([2]; read-out: DC50(nM) BaF3-LTC; BaF3-LTC cells; EGFR degradation, IC50 (DC50) from curve fit) [nM]	Dmax ([2]; read-out: Dmax (%) BaF3-LTC, BaF3-LTC cells; maximum percentage of inhibition (degradation)) [%]
0.59	4.46	84.2	CCc1ccc2c(P(C)(C)=O)c(Nc3nc(Nc4cc(CC)c(N5CCC(N6CCN(C(=O)Cc7c(C)ccc8c7C(C)(C)C(=O)N8C7CCC(=O)NC7=O)CC6)CC5)cc4OC)ncc3Br)ccc2n1 (stereo not shown) [Example 658, 3-(4-(2-(4-(1-(4-((5-bromo-4-((5-(dimethylphosphoryl)-2-ethylquinolin-6-yl)amino)pyrimidin-2-yl)amino)-2-ethyl-5-methoxyphenyl)piperidin-4-yl)piperazin-1-yl)-2-oxoethyl)-3,3,5-trimethyl-2-oxoindolin-1-yl)piperidine-2,6-dione]	71.03 7%			
1.37	11	90.7	CCOc1cc(N2CCC(N3CCN(CCc4c(F)cc5c(oc(=O)n5C5CCC(=O)NC5=O)c4F)CC3)CC2)c(CC)cc1Nc1ncc(Br)c(Nc2ccc3nc(CC)ccc3c2P(C)(C)=O)n1 (stereo not shown) [Example 635, 3-(6-(2-(4-(1-(4-((5-bromo-4-((5-(dimethylphosphoryl)-2-ethylquinolin-6-yl)amino)pyrimidin-2-yl)amino)-5-ethoxy-2-ethylphenyl)piperidin-4-yl)piperazin-1-yl)ethyl)-5,7-difluoro-2-oxobenzo[d]oxazol-3(2H)-yl)piperidine-2,6-dione]	77.57%			
1.13	9.87	93.8	CCOc1cc(N2CCC(N3CCN(CC4CN(c5cc(F)c(C6CCC(=O)NC6=O)c(F)c5)C4)CC3)CC2)c(CC)cc1Nc1ncc(Br)c(Nc2ccc3c(=O)n(C)ncc3c2P(C)(C)=O)n1 (stereo not shown) [Example 535, 3-(4-(3-((4-(1-(4-((5-bromo-4-((5-(dimethylphosphoryl)-2-methyl-1-oxo-1,2-dihydrophthalazin-6-yl)amino)pyrimidin-2-yl)amino)-5-ethoxy-2-ethylphenyl)piperidin-4-yl)piperazin-1-yl)methyl)azetidin-1-yl)-2,6-difluorophenyl)piperidine-2,6-dione]	82.79%			
1.52	11	92.3	CCOc1cc(N2CCC(N3CCN(CCCc4cc(C)cc5c4oc(=O)n5C4CCC(=O)NC4=O)CC3)CC2)c(CC)cc1Nc1ncc(Br)c(Nc2ccc3nc(CC)ccc3c2P(C)(C)=O)n1 (stereo not shown) [Example 636, 3-(7-(3-(4-(1-(4-((5-bromo-4-((5-(dimethylphosphoryl)-2-ethylquinolin-6-yl)amino)pyrimidin-2-yl)amino)-5-ethoxy-2-ethylphenyl)piperidin-4-yl)piperazin-1-yl)propyl)-5-methyl-2-oxobenzo[d]oxazol-3(2H)-yl)piperidine-2,6-dione]	79.04%			
1	14.7	89.3	CCc1ccc2c(P(C)(C)=O)c(Nc3nc(Nc4cc(CC)c(N5CCC(N6CCN(CC7CN(c8cc(F)c(C9CCC(=O)NC9=O)c(F)c8)C7)CC6)CC5)cc4OC)ncc3Br)ccc2n1 (stereo not shown) [Example 508, 3-(4-(3-((4-(1-(4-((5-bromo-4-((5-(dimethylphosphoryl)-2-ethylquinolin-6-yl)amino)pyrimidin-2-yl)amino)-2-ethyl-5-methoxyphenyl)piperidin-4-yl)piperazin-1-yl)methyl)azetidin-1-yl)-2,6-difluorophenyl)piperidine-2,6-dione]	72.7%			
0.763	4.96	95.1	CCc1cc(Nc2ncc(Br)c(Nc3ccc4nc(C(C)(C)O)ccc4c3P(C)(C)=O)n2)c(OC)cc1N1CCC(N2CCN(C(=O)[C@@H]3CCN(c4cc(F)c(C5CCC(=O)NC5=O)c(F)c4)C3)CC2)CC1 (stereo partly drawn) [Example 680, 3-(4-((R)-3-(4-(1-(4-((5-bromo-4-((5-(dimethylphosphoryl)-2-(2-hydroxypropan-2-yl)quinolin-6-yl)amino)pyrimidin-2-yl)amino)-2-ethyl-5-methoxyphenyl)piperidin-4-yl)piperazine-1-carbonyl)pyrrolidin-1-yl)-2,6-difluorophenyl)piperidine-2,6-dione]	85.2%			
0.769	5.66	90.1	CCc1cc(Nc2ncc(Br)c(Nc3ccc4c(=O)n(C)ncc4c3P(C)(C)=O)n2)c(OC)cc1N1CCC(N2CCN(C(=O)C3CN(c4cc(F)c(C5CCC(=O)NC5=O)c(F)c4)C3)CC2)CC1 (stereo not shown) [Example 520, 3-(4-(3-(4-(1-(4-((5-bromo-4-((5-(dimethylphosphoryl)-2-methyl-1-oxo-1,2-dihydrophthalazin-6-yl)amino)pyrimidin-2-yl)amino)-2-ethyl-5-methoxyphenyl)piperidin-4-yl)piperazine-1-carbonyl)azetidin-1-yl)-2,6-difluorophenyl)piperidine-2,6-dione]	73.99%			
			CCOc1cc(N2CCC(N3CCN(CCCc4cc(F)cc5c4oc(=O)n5C4CCC(=O)NC4=O)CC3)CC2)c(CC)cc1Nc1ncc(Br)c(Nc2ccc3nc(CC)ncc3c2P(C)(C)=O)n1 (stereo not shown) [Example 564, 3-(7-(3-(4-(1-(4-((5-bromo-4-((5-(dimethylphosphoryl)-2-ethylquinazolin-6-yl)amino)pyrimidin-2-yl)amino)-5-ethoxy-2-ethylphenyl)piperidin-4-yl)piperazin-1-yl)propyl)-5-fluoro-2-oxobenzo[d]oxazol-3(2H)-yl)piperidine-2,6-dione]	81.87%	1.04	7.34	93.9
1.14	8.65	91	CCOc1cc(N2CCC(N3CCN(CCCc4cccc5c4oc(=O)n5C4CCC(=O)NC4=O)CC3)CC2)c(CC)cc1Nc1ncc(Br)c(Nc2ccc3nc(CC)ccc3c2P(C)(C)=O)n1 (stereo not shown) [Example 630, 3-(7-(3-(4-(1-(4-((5-bromo-4-((5-(dimethylphosphoryl)-2-ethylquinolin-6-yl)amino)pyrimidin-2-yl)amino)-5-ethoxy-2-ethylphenyl)piperidin-4-yl)piperazin-1-yl)propyl)-2-oxobenzo[d]oxazol-3(2H)-yl)piperidine-2,6-dione]	72.34%			
1.39	5.8	94.9	CCOc1cc(N2CCC(N3CCN(C(=O)[C@@H]4CCN(c5cc(F)c([C@H]6CCC(=O)NC6=O)c(F)c5)C4)CC3)CC2)c(CC)cc1Nc1ncc(Br)c(Nc2cc(F)c3ncccc3c2P(C)(C)=O)n1 [Example 678, (R)-3-(4-((R)-3-(4-(1-(4-((5-bromo-4-((5-(dimethylphosphoryl)-8-fluoroquinolin-6-yl)amino)pyrimidin-2-yl)amino)-5-ethoxy-2-ethylphenyl)piperidin-4-yl)piperazine-1-carbonyl)pyrrolidin-1-yl)-2,6-difluorophenyl)piperidine-2,6-dione]	81.53%			
0.634	3.37	88.3	CCc1cc(Nc2ncc(Br)c(Nc3ccc4nc(C)ccc4c3P(C)(C)=O)n2)c(OC)cc1N1CCC(N2CCN(C(=O)Cc3cc(F)c([C@H]4CCC(=O)NC4=O)c(F)c3)CC2)CC1 [Example 670, (R)-3-(4-(2-(4-(1-(4-((5-bromo-4-((5-(dimethylphosphoryl)-2-methylquinolin-6-yl)amino)pyrimidin-2-yl)amino)-2-ethyl-5-methoxyphenyl)piperidin-4-yl)piperazin-1-yl)-2-oxoethyl)-2,6-difluorophenyl)piperidine-2,6-dione]	83.95%			
0.91	6.79	95	CCc1cc(Nc2ncc(Br)c(Nc3ccc4nc(C#N)ccc4c3P(C)(C)=O)n2)c(OC)cc1N1CCC(N2CCN(CCc3cc(F)c([C@H]4CCC(=O)NC4=O)c(F)c3)CC2)CC1 [Example 682, (R)-6-((5-bromo-2-((4-(4-(4-(4-(2,6-dioxopiperidin-3-yl)-3,5-difluorophenethyl)piperazin-1-yl)piperidin-1-yl)-5-ethyl-2-methoxyphenyl)amino)pyrimidin-4-yl)amino)-5-(dimethylphosphoryl)quinoline-2-carbonitrile]	87.08%			
0.612	3.64	95.4	CCc1ccc2c(P(C)(C)=O)c(Nc3nc(Nc4cc(CC)c(N5CCC(N6CCN(CCc7cccc8c7n(C)c(=O)n8C7CCC(=O)NC7=O)CC6)CC5)cc4OC)ncc3Br)ccc2n1 (stereo not shown) [Example 451, 3-(4-(2-(4-(1-(4-((5-bromo-4-((5-(dimethylphosphoryl)-2-ethylquinolin-6-yl)amino)pyrimidin-2-yl)amino)-2-ethyl-5-methoxyphenyl)piperidin-4-yl)piperazin-1-yl)ethyl)-3-methyl-2-oxo-2,3-dihydro-1H-benzo[d]imidazol-1-yl)piperidine-2,6-dione]	70.68%			
